What was measured:
Format in all cases: biochemical, mice
mtPTP = test: Calcium retention capacity (CRC) assay on isolated mitochondria; settings: Table 1, average ± SEM; for Calcium Retention Capacity (CRC/CRC0 at 12.5 μM): 12.5 μM compound; for Calcium Retention Capacity (CRC/CRC0) at 1.56 μM: 1.56 μM compound
Experimental: Assay buffer: 250 mM sucrose, 10 mM MOPS-Tris, 0.01 mM EGTA-Tris, 1.0 mM phosphoric acid-Tris, pH 7.4. • Solution 1. 10 mM glutamate and 5 mM malate in Assay buffer. • Solution 2. 1% DMSO in Solution 2. • Solution 3. 0.5 mg/mL mitochondria and 1.0 μM Calcium Green-5N in Assay Buffer. • Solution 4. 0.25 mM CaCl2).
Protocol Summary: • 1. Freshly isolate mitochondria, prepare solutions according to the recipes in the Reagent Section. • 2. Dispense 100 μL of Solution 2 to Columns 1-2 (negative control) of the 96-well black assay plate (Falcon 353376). • 3. Dispense 200 μL of Solution 1 to Row A Columns 3-12. • 4. Next, dispense 100 μL of Solution 2 to Rows B-H Columns 3-12. • 5. Add 4 μL of 5 mM test compounds in DMSO to Row A Columns 3-12, perform 1:2 serial dilutions Row A to H Columns 3-12. • 6. Finally, dispense 100 μL of Solution 3 in all wells. • 7. Experiment starts. Read Calcium Green-5N fluorescence (excitation 485 nm, emission 538 nm) and perform a train of 4 μL Solution 4 additions with Fluoroskan Ascent FL, Thermo Scientific.

[1] = test system: Mitochondrial Permeability Transition Pore; test: Mitochondrial swelling absorbance assay; settings: Table 1, average ± SEM
Experimental: Mitochondrial Swelling (Hit Validation, Confirmatory Assay, Concentration-Response, AID No. 720722)
Assay buffer: 250 mM sucrose, 10 mM MOPS-Tris, 0.01 mM EGTA-Tris, 1.0 mM phosphoric acid-Tris, pH 7.4 • Solution 1. 5.0 mM glutamate and 2.5 mM malate in Assay buffer. • Solution 2. 80-120 μM CaCl2) depending on mitochondrial activity in Solution 1. Note: Concentration of Ca^2+ in the assay is dependent upon the activity of the isolated mitochondria which is determined via a calcium titration just before each screening batch. A Ca^2+ concentration is used that allows for the arrival at a 2:1 window at the 20 minute time period. • Solution 3. 1% DMSO in Solution 2. • Solution 4. 2.0 mM EGTA-Tris, pH 7.4 in Solution 3. • Solution 5. 0.5 mg/mL mitochondria in Assay Buffer.
Protocol Summary: • 1. Freshly isolate mitochondria, prepare solutions according to the recipes in the reagent section • 2. Dispense 100 μL of Solution 4 to Columns 1-2 and Solution 3 Columns 11-12 (positive and negative controls, respectively) of the 96-well clear assay plate (Falcon 353072) • 3. Dispense 200 μL of Solution 1 to Row A Columns 3-10. • 4. Next, dispense 100 μL of Solution 3 to Rows B-H Columns 3-10. • 5. Add 4 μL of 5 mM test compounds in DMSO to Row A Columns 3-10, perform 1:2 serial dilutions Row A to H Columns 3-10. • 6. Finally, dispense 100 μL of Solution 5 in all wells. The reaction starts. • 7. Keep the plate at room temperature for 20 minutes and then read absorbance at 540 nm on MultiSkan EX, Thermo Scientific.
Concentration-Response Assay to Identify Compounds that Inhibit Mitochondrial Swelling (SAR Assay AID No. 743359)
Assay buffer: 250 mM sucrose, 10 mM MOPS-Tris, 0.01 mM EGTA-Tris, 1.0 mM phosphoric acid, pH 7.4 • Solution 1. 5.0 mM glutamate and 2.5 mM malate in Assay Buffer. • Solution 2. 100-120 μM CaCl2) depending on mitochondrial activity in Solution 1. Note: Concentration of Ca^2+ in the assay is dependent upon the activity of the isolated mitochondria which is determined via a calcium titration just before each screening batch. A Ca^2+ concentration is used that allows for the arrival at a 2:1 window at the 20 minute time period. • Solution 3. 1% DMSO in Solution 2. • Solution 4. 2.0 mM EGTA-Tris, pH 7.4 in Solution 3. • Solution 5. 0.5 mg/mL mitochondria in Assay Buffer.
Protocol Summary: • 1. Freshly isolate mitochondria, prepare solutions according to the recipes in the Reagent Section. • 2. Dispense 100 μL of Solution 4 to Columns 1-2 and Solution 3 Columns 11-12 (positive and negative controls, respectively) of the 96-well clear assay plate (Falcon 353072). • 3. Dispense 200 μL of Solution 1 to Row A Columns 3-10. • 4. Next, dispense 100 μL of Solution 3 to Rows B-H Columns 3-10. • 5. Add 4 μL of 5 mM test compounds in DMSO to Row A Columns 3-10, perform 1:2 serial dilutions Row A to H Columns 3-10. • 6. Finally, dispense 100 μL of Solution 5 in all wells. The reaction starts. • 7. Keep the plate at room temperature for 20 minutes and then read absorbance at 540 nm on MultiSkan EX, Thermo Scientific.

IMM potential = test: Rhodamine 123 (Rh123) uptake counterscreen; settings: Table 1; read-out: Rh123 uptake (EC50);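 further: isolated mitochondria respiring on glutamate plus malate in sucrose MOPS-Tris buffer at pH 7.4, Rh123 added with the organelles, compounds tested across a twofold dilution series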
Experimental: Assay buffer: 250 mM sucrose, 10 mM MOPS-Tris, 0.01 mM EGTA-Tris, 1.0 mM phosphoric acid-Tris, pH 7.4 • Solution 1. 5.0 mM glutamate and 2.5 mM malate in Assay Buffer. • Solution 2. 1% DMSO in Solution 1. • Solution 3. 0.8 μM FCCP (the stock 40 μM in DMSO) in Solution 1. • Solution 4. 0.5 mg/mL mitochondria and 0.8 μM Rh123 in Assay Buffer.
Protocol Summary: • 1. Freshly isolate mitochondria, prepare solutions according to the recipes in the Reagent Section. • 2. Dispense 100 μL of Solution 3 to Columns 1-2 and Solution 2 Columns 11-12 (positive and negative controls, respectively) of the 96-well black assay plate (Falcon 353376). • 3. Dispense 200 μL of Solution 1 to Row A Columns 3-10. • 4. Next, dispense 100 μL of Solution 2 to Rows B-H Columns 3-10. • 5. Add 4 μL of 10 mM test compounds in DMSO to Row A Columns 3-10, perform 1:2 serial dilutions Row A to H Columns 3-10. • 6. Finally, dispense 100 μL of Solution 4 in all wells. The reaction starts. • 7. Keep the plate at room temperature for 5 minutes and then read fluorescence (excitation 485 nm, emission 538 nm) on Fluoroskan Ascent FL, Thermo Scientific.
Concentration-Response Counterscreen Assay to Identify Compounds that Prevent Mitochondrial Swelling Via Interference with the IMM Potential (SAR Assay AID No. 743361)
Assay buffer: 250 mM sucrose, 10 mM MOPS-Tris, 0.01 mM EGTA-Tris, 1.0 mM phosphoric acid-Tris, pH 7.4 • Solution 1. 5.0 glutamate and 2.5 mM malate in Assay Buffer. • Solution 2. 1% DMSO in Solution 1. • Solution 3. 0.8 μM FCCP (the stock 40 μM in DMSO) in Solution 1. • Solution 4. 0.5 mg/mL mitochondria and 0.8 μM Rh123 in Assay Buffer.

Cc1ccc(Cl)cc1NC(=O)c1ccc(-c2cccc(O)c2)cc1
Calcium Retention Capacity (CRC/CRC0 at 12.5 μM) (mtPTP): 2.59 ± 0.22 | EC50 [1]: 4710 ± 349 nM | EC50 (IMM potential): > 100000 nM

COc1ccc(-c2cc(C(=O)Nc3cccc(Cl)c3Cl)no2)cc1O
Calcium Retention Capacity (CRC/CRC0) at 1.56 μM (mtPTP): 5.21 ± 0.50 (at 1.56 μM) | EC50 [1]: 108 ± 10 nM | EC50 (IMM potential): > 100000 nM

COc1ccc(-c2cc(C(=O)Nc3cccc(Cl)c3C)no2)cc1O
Calcium Retention Capacity (CRC/CRC0) at 1.56 μM (mtPTP): 9.59 ± 0.85 | Calcium Retention Capacity (CRC/CRC0 at 12.5 μM) (mtPTP): 13.44 ± 0.93 | EC50 [1]: 0.0283 ± 0.0048 nM | EC50 (IMM potential): > 100000 nM

Cc1cnc(Cl)cc1NC(=O)c1cc(-c2cccc(O)c2)on1
Calcium Retention Capacity (CRC/CRC0 at 12.5 μM) (mtPTP): 5.51 ± 0.99 | EC50 ([1]; unit inferred): 100 ± 9.6 nM | EC50 (IMM potential): > 100000 nM

COc1ccc(-c2cc(C(=O)Nc3cc(Cl)cnc3C)no2)cc1O
Calcium Retention Capacity (CRC/CRC0) at 1.56 μM (mtPTP): 10.10 ± 1.14 | Calcium Retention Capacity (CRC/CRC0 at 12.5 μM) (mtPTP): 13.47 ± 1.32 | EC50 [1]: 11 ± 1.1 nM | EC50 (IMM potential): > 100000 nM

Cc1cc(Cl)cc(NC(=O)c2cc(-c3cccc(O)c3)on2)c1
Calcium Retention Capacity (CRC/CRC0 at 12.5 μM) (mtPTP): 9.34 ± 1.04 | EC50 [1]: 78 ± 5 nM | EC50 (IMM potential): > 100000 nM

O=C(Nc1cccc(Cl)c1)c1cc(-c2ccc(F)c(O)c2)on1
Calcium Retention Capacity (CRC/CRC0 at 12.5 μM) (mtPTP): 10.17 ± 0.69 | EC50 [1]: 13 ± 2 nM | EC50 (IMM potential): > 100000 nM

Cc1ccc(Cl)cc1NC(=O)c1cc(-c2ccc(F)c(O)c2)on1
Calcium Retention Capacity (CRC/CRC0) at 1.56 μM (mtPTP): 15.21 ± 1.26 | Calcium Retention Capacity (CRC/CRC0 at 12.5 μM) (mtPTP): 19.28 ± 1.59 | EC50 [1]: 0.134 ± 0.016 nM | EC50 (IMM potential): > 100000 nM

O=C(Nc1cc(Cl)ccc1F)c1cc(-c2ccc(F)c(O)c2)on1
Calcium Retention Capacity (CRC/CRC0 at 12.5 μM) (mtPTP): 10.07 ± 0.69 | EC50 [1]: 9 ± 1.4 nM | EC50 (IMM potential): > 100000 nM

Cc1cc(Cl)cc(NC(=O)c2cc(-c3ccc(F)c(O)c3)on2)c1
Calcium Retention Capacity (CRC/CRC0 at 12.5 μM) (mtPTP): 6.08 ± 0.52 | EC50 [1]: 819 ± 58.9 nM | EC50 (IMM potential): > 100000 nM

Cc1ncc(Cl)cc1NC(=O)c1cc(-c2ccc(F)c(O)c2)on1
Calcium Retention Capacity (CRC/CRC0) at 1.56 μM (mtPTP): 9.12 ± 0.88 | Calcium Retention Capacity (CRC/CRC0 at 12.5 μM) (mtPTP): 10.69 ± 1.00 | EC50 [1]: 16 ± 1.9 nM | EC50 (IMM potential): > 100000 nM

Cc1cnc(Cl)cc1NC(=O)c1cc(-c2ccc(F)c(O)c2)on1
Calcium Retention Capacity (CRC/CRC0 at 12.5 μM) (mtPTP): 3.48 ± 0.51 | EC50 [1]: 2190 ± 150 nM | EC50 (IMM potential): > 100000 nM

Cc1ncc(Cl)cc1NC(=O)c1cc(-c2cccc(O)c2)on1
Calcium Retention Capacity (CRC/CRC0) at 1.56 μM (mtPTP): 6.62 ± 0.89 | Calcium Retention Capacity (CRC/CRC0 at 12.5 μM) (mtPTP): 10.09 ± 0.91 | EC50 [1]: 24 ± 2.2 nM | EC50 (IMM potential): > 100000 nM

Cc1ccc(Cl)cc1NC(=O)c1cc(-c2cccc(O)c2)on1
Calcium Retention Capacity (CRC/CRC0) at 1.56 μM (mtPTP): 9.63 ± 0.29 | Calcium Retention Capacity (CRC/CRC0 at 12.5 μM) (mtPTP): 14.99 ± 1.20 | EC50 [1]: 3.5 ± 0.7 nM | EC50 (IMM potential): > 100000 nM

COc1ccc(Cl)cc1C(=O)Nc1ccc(CCN2CCOCC2)cc1
Calcium Retention Capacity (CRC/CRC0 at 12.5 μM) (mtPTP): 1.23 ± 0.02 | EC50 [1]: 9000 ± 404 nM | EC50 (IMM potential): > 100000 nM

O=C(Nc1cccc(Cl)c1Cl)c1cc(-c2cccc(O)c2)on1
Calcium Retention Capacity (CRC/CRC0 at 12.5 μM) (mtPTP): 4.00 ± 0.42 | EC50 [1]: 12500 ± 668 nM | EC50 (IMM potential): > 100000 nM

O=C(Nc1cc(Cl)ccc1Cl)c1cc(-c2cccc(O)c2)on1
Calcium Retention Capacity (CRC/CRC0 at 12.5 μM) (mtPTP): 4.67 ± 0.31 | EC50 [1]: 1520 ± 51.2 nM | EC50 (IMM potential): 38500 ± 3980 nM

COc1c(Cl)cccc1NC(=O)c1cc(-c2cccc(O)c2)on1
Calcium Retention Capacity (CRC/CRC0 at 12.5 μM) (mtPTP): 1.83 ± 0.17 | EC50 [1]: 42700 ± 2590 nM | EC50 (IMM potential): > 100000 nM

O=C(Nc1cc(Cl)cc(Cl)c1)c1cc(-c2cccc(O)c2)on1
Calcium Retention Capacity (CRC/CRC0) at 1.56 μM (mtPTP): 5.72 ± 0.25 | Calcium Retention Capacity (CRC/CRC0 at 12.5 μM) (mtPTP): 12.08 ± 1.92 | EC50 [1]: 190 ± 17 nM | EC50 (IMM potential): > 100000 nM

O=C(Nc1cccc(Cl)c1)c1cc(-c2ccc(O)cc2)on1
Calcium Retention Capacity (CRC/CRC0 at 12.5 μM) (mtPTP): 3.50 ± 0.57 | EC50 [1]: 2210 ± 174 nM | EC50 (IMM potential): > 100000 nM

N#Cc1ccc(Cl)cc1NC(=O)c1cc(-c2cccc(O)c2)on1
Calcium Retention Capacity (CRC/CRC0) at 1.56 μM (mtPTP): 7.69 ± 0.61 | Calcium Retention Capacity (CRC/CRC0 at 12.5 μM) (mtPTP): 13.99 ± 1.50 | EC50 [1]: 30 ± 2.6 nM | EC50 (IMM potential): > 100000 nM

O=C(Nc1cc(Cl)ccc1OCc1ccccc1)c1cc(-c2cccc(O)c2)on1
Calcium Retention Capacity (CRC/CRC0 at 12.5 μM) (mtPTP): 1.59 ± 0.33 | EC50 [1]: 17600 ± 2210 nM | EC50 (IMM potential): > 100000 nM

Cc1ccccc1NC(=O)c1cc(-c2cccc(O)c2)on1
Calcium Retention Capacity (CRC/CRC0 at 12.5 μM) (mtPTP): 8.16 ± 0.92 | EC50 [1]: 30 ± 2.2 nM | EC50 (IMM potential): > 100000 nM

Cc1ccccc1NC(=O)c1cc(-c2ccc(O)cc2)on1
Calcium Retention Capacity (CRC/CRC0 at 12.5 μM) (mtPTP): 2.94 ± 0.46 | EC50 [1]: 2450 ± 148 nM | EC50 (IMM potential): > 100000 nM

COc1ccc(-c2cc(C(=O)Nc3cc(Cl)ccc3C)no2)cc1O
Calcium Retention Capacity (CRC/CRC0) at 1.56 μM (mtPTP): 10.02 ± 0.34 | Calcium Retention Capacity (CRC/CRC0 at 12.5 μM) (mtPTP): 14.44 ± 0.58 | EC50 [1]: 0.00756 ± 0.00122 nM | EC50 (IMM potential): > 100000 nM

O=C(Nc1cc(Cl)ccc1F)c1cc(-c2cccc(O)c2)on1
Calcium Retention Capacity (CRC/CRC0) at 1.56 μM (mtPTP): 3.77 ± 0.17 (at 1.56 μM) | EC50 [1]: 172 ± 14 nM | EC50 (IMM potential): > 100000 nM

Cc1c(Cl)cccc1NC(=O)c1cc(-c2ccc(Cl)c(O)c2)on1
Calcium Retention Capacity (CRC/CRC0) at 1.56 μM (mtPTP): 8.22 ± 0.58 (at 1.56 μM) | EC50 [1]: 0.18 ± 0.042 nM | EC50 (IMM potential): > 100000 nM

Cc1ncc(Cl)cc1NC(=O)c1cc(-c2ccc(Cl)c(O)c2)on1
Calcium Retention Capacity (CRC/CRC0) at 1.56 μM (mtPTP): 6.91 ± 0.47 (at 1.56 μM) | EC50 [1]: 1.34 ± 0.26 nM | EC50 (IMM potential): > 100000 nM

Cc1ccc(Cl)cc1NC(=O)c1cc(-c2ccc(Cl)c(O)c2)on1
Calcium Retention Capacity (CRC/CRC0) at 1.56 μM (mtPTP): 6.21 ± 0.66 (at 1.56 μM) | EC50 [1]: 2.16 ± 0.45 nM | EC50 (IMM potential): > 100000 nM

Cc1ccc(Cl)cc1NC(=O)c1cc(-c2ccc(F)c(O)c2)[nH]n1
Calcium Retention Capacity (CRC/CRC0) at 1.56 μM (mtPTP): 10.92 ± 0.74 (at 1.56 μM) | EC50 [1]: 1.4 ± 0.2 nM | EC50 (IMM potential): 30400 ± 5500 nM

COc1ccc(-c2cc(C(=O)Nc3cc(Cl)ccc3C)n[nH]2)cc1O
Calcium Retention Capacity (CRC/CRC0) at 1.56 μM (mtPTP): 7.51 ± 0.47 (at 1.56 μM) | EC50 [1]: 2.4 ± 0.4 nM | EC50 (IMM potential): > 100000 nM

Cc1cccc(C)c1NC(=O)c1cc(-c2cccc(O)c2)on1
Calcium Retention Capacity (CRC/CRC0) at 1.56 μM (mtPTP): 8.12 ± 0.59 (at 1.56 μM) | EC50 [1]: 12.1 ± 1.4 nM | EC50 (IMM potential): > 100000 nM

COc1ccc(-c2cc(C(=O)Nc3cccc(Cl)c3)no2)cc1O
Calcium Retention Capacity (CRC/CRC0 at 12.5 μM) (mtPTP): 7.18 ± 0.87 | EC50 [1]: 35 ± 4.2 nM | EC50 (IMM potential): > 100000 nM

O=C(Nc1cc(Cl)ccc1Cl)c1cc(-c2ccc(F)c(O)c2)on1
Calcium Retention Capacity (CRC/CRC0) at 1.56 μM (mtPTP): 6.50 ± 0.77 | Calcium Retention Capacity (CRC/CRC0 at 12.5 μM) (mtPTP): 12.15 ± 1.36 | EC50 [1]: 66 ± 3.2 nM | EC50 (IMM potential): > 100000 nM

COc1ccc(-c2cc(C(=O)Nc3cc(Cl)ccc3OC)no2)cc1O
Calcium Retention Capacity (CRC/CRC0) at 1.56 μM (mtPTP): 6.62 ± 0.84 | Calcium Retention Capacity (CRC/CRC0 at 12.5 μM) (mtPTP): 9.89 ± 1.31 | EC50 [1]: 97 ± 3.4 nM | EC50 (IMM potential): > 100000 nM

COc1ccc(Cl)cc1NC(=O)c1cc(-c2cccc(O)c2)on1
Calcium Retention Capacity (CRC/CRC0) at 1.56 μM (mtPTP): 6.95 ± 1.15 | Calcium Retention Capacity (CRC/CRC0 at 12.5 μM) (mtPTP): 10.89 ± 1.34 | EC50 [1]: 60 ± 7.6 nM | EC50 (IMM potential): > 100000 nM

CN(C)c1ccc(Cl)cc1NC(=O)c1cc(-c2cccc(O)c2)on1
Calcium Retention Capacity (CRC/CRC0 at 12.5 μM) (mtPTP): 2.22 ± 0.38 | EC50 [1]: 1610 ± 866 nM | EC50 (IMM potential): > 100000 nM

COc1ccc(-c2cc(C(=O)Nc3cc(Cl)ccc3Cl)no2)cc1O
Calcium Retention Capacity (CRC/CRC0) at 1.56 μM (mtPTP): 4.34 ± 0.53 | Calcium Retention Capacity (CRC/CRC0 at 12.5 μM) (mtPTP): 9.59 ± 1.29 | EC50 [1]: 146 ± 11.5 nM | EC50 (IMM potential): > 100000 nM

COc1ccc(-c2cc(C(=O)Nc3cc(Cl)ccc3F)no2)cc1O
Calcium Retention Capacity (CRC/CRC0 at 12.5 μM) (mtPTP): 5.37 ± 0.58 | EC50 [1]: 217 ± 51.8 nM | EC50 (IMM potential): > 100000 nM

Cc1ccc(Cl)cc1NC(=O)c1cc(-c2ccccc2O)on1
Calcium Retention Capacity (CRC/CRC0 at 12.5 μM) (mtPTP): 2.10 ± 0.26 | EC50 [1]: 6060 ± 748 nM | EC50 (IMM potential): > 100000 nM

COc1ccc(-c2cc(C(=O)Nc3cc(Cl)ncc3C)no2)cc1O [drawing 129]
EC50 ([1]; unit inferred): 366 ± 47.5 nM

O=C(Nc1cccc(Cl)c1)c1cc(-c2cccc(O)c2)on1 [drawing 166]
Calcium Retention Capacity (CRC/CRC0 at 12.5 μM) (mtPTP): 5.47 ± 0.57

COc1ccc(Cl)cc1C(=O)Nc1ccc(CCN2CCN(C(=O)OC(C)(C)C)CC2)cc1 [drawing 174]
Calcium Retention Capacity (CRC/CRC0 at 12.5 μM) (mtPTP): 1.90 ± 0.11

COc1ccc(/C=C/C(=O)Nc2cccc(Cl)c2)cc1O [drawing 175]
Calcium Retention Capacity (CRC/CRC0 at 12.5 μM) (mtPTP): 14.02 ± 1.63

COc1ccc(-c2cc(C(=O)Nc3cc(Cl)cc(Cl)c3)no2)cc1O [drawing 192]
Calcium Retention Capacity (CRC/CRC0 at 12.5 μM) (mtPTP): 3.52 ± 0.44
